According to patent US20230117328A1, “METHODS TO TREAT CANCER USING (R)-N-(3-FLUORO-4-((3-((1-HYDROXYPROPAN-2-YL)AMINO)-1H-PYRAZOLO[3,4-B]PYRIDIN-4-YL)OXY)PHENYL)-3-(4-FLUOROPHENYL)-1-ISOPROPYL-2,4-DIOXO-1,2,3,4-TETRAHYDROPYRIMIDINE-5-CARBOXAMIDE” (Array BioPharma Inc., priority 2020, published 2023):

Legend:
[1] = test system: MC-38 colon adenocarcinoma tumors; assay: Antitumor efficacy in syngeneic MC-38 colon adenocarcinoma tumor-bearing mice; type: in vivo, C57BL/6 mice; details: MC-38 tumor-bearing mice; for Median Survival (days): not reached = more than 50% of animals alive at end of study (Day 66), 50 mg/kg
Protocol: Female C57BL/6 bearing syngeneic MC-38 colon adenocarcinoma tumors (n=8/group, implanted on Day 0) were administered test articles Compound 1 or anti-PD-1, as monotherapy or in combination, starting on Day 10. As monotherapy, anti-PD-1 was administered twice weekly (BIW) for 2 consecutive weeks by intraperitoneal (IP) injection at 200 μg/mouse (Days 10, 13, 17, and 20). As monotherapy, Compound 1 was administered twice daily (BID) at 50 mg/kg by oral gavage (PO) for 28 consecutive days (Days 10-37). As combination therapy with anti-PD-1 (administered at the dose and schedule indicated above), Compound 1 was administered BID at 50 mg/kg PO for 1) 7 consecutive days (Days 10-16); 2) 14 consecutive days (Days 10-23); 3) 21 consecutive days (Days 10-30); 4) 28 consecutive days (Days 10-37); or, 5) 7 consecutive days on the first and third week of dosing (Days 10-16 and Days 24-30). This set of cohorts was used to determine both the tolerability and efficacy of Compound 1 treatment across dosing schedules, as well as ocular toxicity upon recovery on Day 66.
For initial tumor outgrowth, a suspension of 1×10^6 MC-38 cells in a volume of 100 μL PBS was implanted subcutaneously on the right flank of the animal near the axillary region. Animals were then randomly assigned to treatment groups. Treatment was initiated on day 10 after MC-38 tumor cell inoculation to allow for a sufficient treatment window (Table 1).
Anti-PD-1 was administered twice weekly (BIW) for 2 consecutive weeks by intraperitoneal (IP) injection at 200 μg/mouse. Compound 1 was administered twice daily (BID) for 28 consecutive days by oral gavage (PO) at 50 mg/kg in 10 mL/kg dose volume (with or without anti-PD-1 administered on the above indicated dose and schedule). Alternatively, Compound 1 was administered BID for 7, 14 or 21 consecutive days, or on Days 10-16 and Days 24-30 in combination with anti-PD-1. Concomitantly, a set of satellite cohorts comprising tumor-naïve mice was treated with the same schedules and doses as indicated above.
Animals were monitored for tumor growth and body weight 2-3 times per week based on outgrowth kinetics. Tumor diameter was measured with digital calipers, and the tumor volume in mm^3 was calculated by the formula: Volume=((width)^2×length)/2. Animals were removed from study if found moribund or if tumor volume exceeded 1500 mm^3. […] Food, water, temperature and humidity were according to Pharmacology Testing Facility performance standards (SOPs) which are in accordance with the 1996 Guide for the Care and Use of Laboratory Animals (NRC) and AAALAC-International.
The murine MC-38 colon adenocarcinoma cell line was developed in C57BL/6 mice upon subcutaneous injection of dimethylhydrazine (Corbett, T. H., Griswold, D. P., et al. (1975), Cancer Research 35, 2434-2439). Extensive immunogenomic, transcriptomic, and therapeutic background are available on this cell line (Yadav, M., Jhunjhunwala, S., et al. (2014) Nature, 515, 572-576; and Efremova, M., Rieder, D., et al. (2018) Nat. Commun. 9, 32). The MC-38 cell line is reported to harbor driver mutations in TP53, PTEN, SMAD2, SMAD4, ACVR2A, TGFB2, BRAF, AXIN, SOX9, and ARID1A. Furthermore, mutations in the MMR gene MSH3 indicate that this cell line is a model of human MSI/hypermutated colorectal cancer. Whole exome sequencing has also identified 1290 transcript coding variations (compared to the reference C57BL/6 genome), among which 170 were predicted to be MHC Class I-presented neo-epitopes.
MC-38 (National Cancer Institute-Frederick Tumor Repository, Frederick, Md.) cells were grown in a humidified atmosphere of 5% CO2 using DMEM growth media (Gibco Life Technologies, 11965-092) supplemented with 10% fetal bovine serum (HyClone SH30071.03, Logan, Utah) and 100 U/mL penicillin, 100 μg/mL streptomycin (Gibco Life Technologies, 15140-122). Cells were confirmed murine virus and mycoplasma negative (IDEXX Laboratories Inc, Columbia, Mo.) prior to implantation. […]

[2] = Tolerability (body weight loss, deaths) in tumor-naive cohorts; type: in vivo; details: tumor-naive mice
Protocol: Anti-PD-1 was administered twice weekly (BIW) for 2 consecutive weeks by intraperitoneal (IP) injection at 200 μg/mouse. […] Concomitantly, a set of satellite cohorts comprising tumor-naïve mice was treated with the same schedules and doses as indicated above. […]

P-gp = P-gp (Homo sapiens, UniProt P08183); assay: P-gp substrate assessment in vitro; type: in vitro ADME
Aqueous solubility = type: physicochemical
[3] = test system: female Sprague Dawley rats; details: female, Sprague Dawley, rat, in vivo
[4] = Compound 1 50 mg/kg PO BID Days 10-16 (7 days) in combination with anti-PD-1 200 μg IP BIW (Days 10, 13, 17, 20)
[5] = Compound 1 50 mg/kg PO BID Days 10-16 and Days 24-30 (interval schedule) in combination with anti-PD-1 200 μg IP BIW (Days 10, 13, 17, 20)
[6] = Compound 1 50 mg/kg PO BID Days 10-23 (14 days) in combination with anti-PD-1 200 μg IP BIW (Days 10, 13, 17, 20)
[7] = Compound 1 50 mg/kg PO BID Days 10-30 (21 days) in combination with anti-PD-1 200 μg IP BIW (Days 10, 13, 17, 20)
[8] = Compound 1 50 mg/kg PO BID Days 10-37 (28 days) in combination with anti-PD-1 200 μg IP BIW (Days 10, 13, 17, 20)
[9] = Compound 1 monotherapy, 50 mg/kg PO BID Days 10-37 (28 days)
[10] = Compound 1 50 mg/kg PO BID Days 10-16/24-30 in combination with anti-PD-1 200 μg IP BIW
[11] = Compound 1 50 mg/kg PO BID Days 10-16 in combination with anti-PD-1 200 μg IP BIW
[12] = Compound 1 50 mg/kg PO BID Days 10-23 in combination with anti-PD-1 200 μg IP BIW
[13] = Compound 1 50 mg/kg PO BID Days 10-30 in combination with anti-PD-1 200 μg IP BIW
[14] = Compound 1 50 mg/kg PO BID Days 10-37 in combination with anti-PD-1 200 μg IP BIW
[15] = Compound 1 monotherapy, 50 mg/kg PO BID Days 10-37

P-gp, sequence (P08183 whole entry): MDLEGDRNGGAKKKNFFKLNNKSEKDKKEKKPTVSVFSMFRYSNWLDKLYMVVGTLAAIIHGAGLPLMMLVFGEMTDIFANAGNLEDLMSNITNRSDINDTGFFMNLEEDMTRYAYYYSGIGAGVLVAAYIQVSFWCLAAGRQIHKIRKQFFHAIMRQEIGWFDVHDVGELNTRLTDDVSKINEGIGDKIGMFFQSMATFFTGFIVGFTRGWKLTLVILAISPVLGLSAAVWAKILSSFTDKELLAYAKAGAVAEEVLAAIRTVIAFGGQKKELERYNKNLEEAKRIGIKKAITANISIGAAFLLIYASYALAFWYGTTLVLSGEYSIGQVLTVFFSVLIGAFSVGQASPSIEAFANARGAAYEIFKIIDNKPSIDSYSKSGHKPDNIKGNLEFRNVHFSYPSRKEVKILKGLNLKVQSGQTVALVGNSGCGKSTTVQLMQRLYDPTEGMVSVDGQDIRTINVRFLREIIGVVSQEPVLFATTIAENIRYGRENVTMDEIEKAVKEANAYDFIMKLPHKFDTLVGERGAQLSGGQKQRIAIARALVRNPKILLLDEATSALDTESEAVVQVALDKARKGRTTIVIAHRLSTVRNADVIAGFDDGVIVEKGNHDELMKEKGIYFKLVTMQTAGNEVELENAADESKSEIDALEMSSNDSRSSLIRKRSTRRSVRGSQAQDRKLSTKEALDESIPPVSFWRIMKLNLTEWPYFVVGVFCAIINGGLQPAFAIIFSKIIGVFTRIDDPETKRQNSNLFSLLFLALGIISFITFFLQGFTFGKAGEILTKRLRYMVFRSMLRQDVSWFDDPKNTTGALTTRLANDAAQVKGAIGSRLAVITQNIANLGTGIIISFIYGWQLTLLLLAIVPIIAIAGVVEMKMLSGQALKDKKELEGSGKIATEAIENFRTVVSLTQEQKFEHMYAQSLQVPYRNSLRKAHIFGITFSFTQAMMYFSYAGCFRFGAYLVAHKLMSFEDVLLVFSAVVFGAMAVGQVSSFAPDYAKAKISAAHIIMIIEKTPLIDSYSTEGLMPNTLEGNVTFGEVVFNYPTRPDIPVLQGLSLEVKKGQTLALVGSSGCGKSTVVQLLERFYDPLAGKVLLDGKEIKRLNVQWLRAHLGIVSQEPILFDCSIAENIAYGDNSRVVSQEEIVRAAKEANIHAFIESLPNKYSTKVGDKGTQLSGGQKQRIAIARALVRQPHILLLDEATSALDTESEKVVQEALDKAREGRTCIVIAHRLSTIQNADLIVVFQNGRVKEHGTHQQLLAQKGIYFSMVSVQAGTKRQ

## CC(C)n1cc(C(=O)Nc2ccc(Oc3ccnc4[nH]nc(N[C@H](C)CO)c34)c(F)c2)c(=O)n(-c2ccc(F)cc2)c1=O [Compound 1, (R)—N-(3-fluoro-4-((3-((1-hydroxypropan-2-yl)amino)-1H-pyrazolo[3,4-b]pyridin-4-yl)oxy)phenyl)-3-(4-fluorophenyl)-1-isopropyl-2,4-dioxo-1,2,3,4-tetrahydropyrimidine-5-carboxamide]
[1]; [4]
  % TGI on Day 32: 96.6%
  Cures on Day 66: 6/8
[1]; Compound 1 50 mg/kg PO BID Days 10-16 (7 days) in combination with anti-PD-1 200 μg IP BIW
  Median Survival (days): not reached
[1]; [5]
  % TGI on Day 32: 96.2%
  Cures on Day 66: 4/8
[1]; Compound 1 50 mg/kg PO BID Days 10-16 and Days 24-30 (interval schedule) in combination with anti-PD-1 200 μg IP BIW
  Median Survival (days): not reached
[1]; [6]
  % TGI on Day 32: 97.1%
  Cures on Day 66: 3/8
  Median Survival: 66 days
[1]; [7]
  % TGI on Day 32: 98.5%
  Cures on Day 66: 3/8
[1]; Compound 1 50 mg/kg PO BID Days 10-30 (21 days) in combination with anti-PD-1 200 μg IP BIW
  Median Survival (days): not reached
[1]; [8]
  % TGI on Day 32: 99.3%
  Cures on Day 66: 5/7
[1]; Compound 1 50 mg/kg PO BID Days 10-37 (28 days) in combination with anti-PD-1 200 μg IP BIW
  Median Survival (days): not reached
[1]; [9]
  % TGI on Day 32: 95.6%
  Cures on Day 66: 0/6
  Median Survival: 66 days
[2]; [10]
  Deaths (any cause): 0/5
  Maximum % Body Weight Loss: 0.00%
[2]; [11]
  Deaths (any cause): 0/5
  Maximum % Body Weight Loss: 0.00%
[2]; [12]
  Deaths (any cause): 1/5
  Maximum % Body Weight Loss: 0.00%
[2]; [13]
  Deaths (any cause): 1/5
  Maximum % Body Weight Loss: 0.00%
[2]; [14]
  Deaths (any cause): 0/5
  Maximum % Body Weight Loss: 0.00%
[2]; [15]
  Deaths (any cause): 0/5
  Maximum % Body Weight Loss: 0.00%
P-gp
  P-gp substrate status: substrate of P-gp and BCRP
Aqueous solubility
  aqueous solubility: pH dependent
[3]
  therapeutic multiples compared to expected exposure at the starting dose of 25 mg QD: 39-78
[3]; 14 days
  STD10 for 14 days once daily dose administration: 100 mg/kg
